We go through seven compounds from patent US11173150B2, “Method for diagnosing, preventing, and treating neurological diseases” (United States Government As Represented By The Department …, priority 2010, dated 2021).

By MIC is commonly meant the lowest concentration found to suppress growth.

Values after ≈ are worked out from the molar mass of the structure shown. Like-named read-outs stand apart in the source and are kept apart here. Bridge positions count the residues as written; N and C are the ends. Square brackets hold non-standard residues; d marks the D form. Peptide text beside a SMILES is read from it. * marks the point of attachment. Octanoyl(6-Me) = CCC(C)CCCCC(=O)*; Dab = NCC[CH](N)C(=O)O

The conditions of series [1]: cited from earlier work.
In another series the test system is Desulfovibrio. The experiment in a line: Antimicrobial susceptibility testing, CLSI serial two-fold plate dilution. In kind it is cell-based.
The target of another series is tetanus toxin (Clostridium tetani, UniProt P04958). To be noted: cited from earlier work.
The next series concerns clostridia. To be noted: cited from earlier work.
The mark [2] stands for this setting: Desulfovibrio, Desulfovibrio strain 8951, read-out: MIC.
The mark [3] stands for this setting: Desulfovibrio, Desulfovibrio strain 11232, read-out: MIC.
[4] abbreviates: Desulfovibrio, Desulfovibrio strain 11437, read-out: MIC.
Where [5] appears, read: Desulfovibrio, Desulfovibrio strain 11789, read-out: MIC.
Setting [6] is: Desulfovibrio, Desulfovibrio strain 11830, read-out: MIC.
Where [7] appears, read: Desulfovibrio, Desulfovibrio strain 12379, read-out: MIC.
Setting [8] is: Desulfovibrio, Desulfovibrio strain 13966, read-out: MIC.
Setting [9] is: Desulfovibrio, Desulfovibrio type strain 29098^T, read-out: MIC.
The mark [10] stands for this setting: Desulfovibrio type strain 7757^T.
The mark [11] stands for this setting: Desulfovibrio type strain 29098^T.

Chain of tetanus toxin (P04958 whole entry, looked up): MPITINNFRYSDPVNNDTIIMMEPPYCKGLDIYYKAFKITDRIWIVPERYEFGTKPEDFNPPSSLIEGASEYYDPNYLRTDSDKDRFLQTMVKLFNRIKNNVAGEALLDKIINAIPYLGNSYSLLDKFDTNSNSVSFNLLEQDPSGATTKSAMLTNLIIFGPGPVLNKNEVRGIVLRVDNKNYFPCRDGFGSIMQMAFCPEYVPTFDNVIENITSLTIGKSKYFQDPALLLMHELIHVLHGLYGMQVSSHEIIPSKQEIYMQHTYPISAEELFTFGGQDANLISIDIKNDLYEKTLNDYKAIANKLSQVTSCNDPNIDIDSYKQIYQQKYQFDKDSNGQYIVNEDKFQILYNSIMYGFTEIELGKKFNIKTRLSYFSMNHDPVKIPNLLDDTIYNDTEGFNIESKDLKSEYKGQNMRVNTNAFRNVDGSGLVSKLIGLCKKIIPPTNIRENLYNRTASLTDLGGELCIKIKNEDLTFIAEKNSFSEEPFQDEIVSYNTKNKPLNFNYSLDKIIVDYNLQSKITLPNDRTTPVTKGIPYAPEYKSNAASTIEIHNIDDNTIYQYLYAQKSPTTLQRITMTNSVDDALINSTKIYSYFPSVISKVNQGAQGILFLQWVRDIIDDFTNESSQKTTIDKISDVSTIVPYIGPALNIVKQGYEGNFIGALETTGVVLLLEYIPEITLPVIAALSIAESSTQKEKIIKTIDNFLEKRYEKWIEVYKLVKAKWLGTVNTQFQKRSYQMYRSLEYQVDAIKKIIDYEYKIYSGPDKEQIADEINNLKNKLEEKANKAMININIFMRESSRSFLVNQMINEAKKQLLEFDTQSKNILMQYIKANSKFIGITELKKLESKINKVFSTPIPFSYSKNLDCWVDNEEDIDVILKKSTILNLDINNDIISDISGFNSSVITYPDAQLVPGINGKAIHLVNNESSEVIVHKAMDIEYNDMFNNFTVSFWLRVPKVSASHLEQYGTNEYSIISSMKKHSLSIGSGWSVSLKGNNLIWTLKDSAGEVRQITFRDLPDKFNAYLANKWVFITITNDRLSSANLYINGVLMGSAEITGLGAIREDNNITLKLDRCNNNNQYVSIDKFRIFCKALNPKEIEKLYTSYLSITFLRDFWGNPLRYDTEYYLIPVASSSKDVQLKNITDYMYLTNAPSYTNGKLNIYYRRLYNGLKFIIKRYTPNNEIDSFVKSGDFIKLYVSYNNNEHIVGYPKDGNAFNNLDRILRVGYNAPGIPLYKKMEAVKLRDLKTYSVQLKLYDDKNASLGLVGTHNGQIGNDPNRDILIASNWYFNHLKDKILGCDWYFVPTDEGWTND

On to `C[C@H]1[C@H](NC(=O)/C(=N\OC(C)(C)C(=O)O)c2csc(N)n2)C(=O)N1S(=O)(=O)O` [Aztreonam], for which the “Absorption when given by the oral route” value in series [1] (oral) is on record as “virtually unabsorbed”. Moreover, the MIC in the series on Desulfovibrio (Desulfovibrio, Desulfovibrio strain 4019) was 512 µg/mL (≈ 1180 µM); in the series with Desulfovibrio (Desulfovibrio, Desulfovibrio strain 8381), 128 µg/mL (≈ 294 µM); in the series on Desulfovibrio (setting [2]) it was 64 µg/mL (≈ 147 µM); against Desulfovibrio (Desulfovibrio, Desulfovibrio strain 9070) it was 512 µg/mL (≈ 1180 µM); in the series on Desulfovibrio (setting [3]), 64 µg/mL (≈ 147 µM); with Desulfovibrio (setting [4]) it was 64 µg/mL (≈ 147 µM). Also, the MIC with Desulfovibrio (setting [5]) was 32 µg/mL (≈ 73.5 µM); in the series with Desulfovibrio (setting [6]) it was 64 µg/mL (≈ 147 µM); in the series on Desulfovibrio (setting [7]), 16 µg/mL (≈ 36.7 µM); in the series on Desulfovibrio (setting [8]) it was 24 µg/mL (≈ 55.1 µM); in the series with Desulfovibrio (setting [9]), 32 µg/mL (≈ 73.5 µM).
As to `C[C@H](CS)C(=O)N1CCC[C@H]1C(=O)O` [Captopril], the “Effect on tetanus toxin in vitro” value on tetanus toxin is “inactivates”.
For `NC[C@H]1O[C@H](O[C@H]2[C@H](O)[C@@H](O[C@H]3O[C@H](CO)[C@@H](O)[C@H](N)[C@H]3O)[C@H](N)C[C@@H]2N)[C@H](O)[C@@H](O)[C@@H]1O` [Kanamycin], in series [1] (in vivo, po), the “Absorption when given by the oral route” value was “virtually unabsorbed”. For the same compound, the MIC with Desulfovibrio (Desulfovibrio, Desulfovibrio strain 4019, read-out: MIC) was determined as 512 µg/mL (≈ 1060 µM); in the series with Desulfovibrio (Desulfovibrio, Desulfovibrio strain 8236, read-out: MIC) it was 512 µg/mL (≈ 1060 µM); in the series with Desulfovibrio (Desulfovibrio, Desulfovibrio strain 8381, read-out: MIC), 256 µg/mL (≈ 528 µM); in the series on Desulfovibrio (Desulfovibrio, Desulfovibrio strain 8907, read-out: MIC), 256 µg/mL (≈ 528 µM); with Desulfovibrio (Desulfovibrio, Desulfovibrio strain 8933, read-out: MIC), 512 µg/mL (≈ 1060 µM); with Desulfovibrio (setting [2]), 512 µg/mL (≈ 1060 µM). The MIC in the series on Desulfovibrio (Desulfovibrio, Desulfovibrio strain 9070, read-out: MIC) was 512 µg/mL (≈ 1060 µM); with Desulfovibrio (Desulfovibrio, Desulfovibrio strain 9120, read-out: MIC), 256 µg/mL (≈ 528 µM); with Desulfovibrio (Desulfovibrio, Desulfovibrio strain 9706, read-out: MIC), 256 µg/mL (≈ 528 µM); with Desulfovibrio (Desulfovibrio, Desulfovibrio strain 9976, read-out: MIC), 128 µg/mL (≈ 264 µM); with Desulfovibrio (Desulfovibrio, Desulfovibrio strain 10831, read-out: MIC) it was 256 µg/mL (≈ 528 µM); in the series with Desulfovibrio (Desulfovibrio, Desulfovibrio strain 11081, read-out: MIC) it was 512 µg/mL (≈ 1060 µM). In addition, the MIC in the series with Desulfovibrio (Desulfovibrio, Desulfovibrio strain 11094, read-out: MIC) is 512 µg/mL (≈ 1060 µM); in the series on Desulfovibrio (setting [3]) it was 256 µg/mL (≈ 528 µM); in the series with Desulfovibrio (Desulfovibrio, Desulfovibrio strain 11346, read-out: MIC), 512 µg/mL (≈ 1060 µM); in the series on Desulfovibrio (Desulfovibrio, Desulfovibrio strain 11378, read-out: MIC), 512 µg/mL (≈ 1060 µM); in the series with Desulfovibrio (setting [4]), 128 µg/mL (≈ 264 µM); in the series with Desulfovibrio (Desulfovibrio, Desulfovibrio strain 11568, read-out: MIC), 512 µg/mL (≈ 1060 µM). Moreover, the MIC was found to be 256 µg/mL (≈ 528 µM) in the series with Desulfovibrio (Desulfovibrio, Desulfovibrio strain 11623, read-out: MIC); 512 µg/mL (≈ 1060 µM) in the series with Desulfovibrio (Desulfovibrio, Desulfovibrio strain 11717, read-out: MIC); 256 µg/mL (≈ 528 µM) with Desulfovibrio (setting [5]); 128 µg/mL (≈ 264 µM) in the series with Desulfovibrio (setting [6]); 128 µg/mL (≈ 264 µM) in the series with Desulfovibrio (Desulfovibrio, Desulfovibrio strain 11949, read-out: MIC); 512 µg/mL (≈ 1060 µM) in the series with Desulfovibrio (setting [7]). Besides, the MIC with Desulfovibrio (setting [8]) stood at 512 µg/mL (≈ 1060 µM); in the series with Desulfovibrio (Desulfovibrio, Desulfovibrio type strain 7757^T, read-out: MIC), 512 µg/mL (≈ 1060 µM); in the series on Desulfovibrio (setting [9]) it was 128 µg/mL (≈ 264 µM).
`CCC(C)CCCCC(=O)NC(CCN)C(=O)NC(C(=O)NC(CCN)C(=O)NC1CCNC(=O)C(C(C)O)NC(=O)C(CCN)NC(=O)C(CCN)NC(=O)C(CC(C)C)NC(=O)C(Cc2ccccc2)NC(=O)C(CCN)NC1=O)C(C)O` (stereo not shown) [Polymyxin B] ({Octanoyl(6-Me)}-[Dab]T[Dab][Dab][Dab]FL[Dab][Dab]T; lactam 4-C; configuration not given here): the “Absorption when given by the oral route” value in series [1] (oral) is given as “virtually unabsorbed”. The “Penetration of the intestinal mucosa” value in series [1] (oral) was “do not penetrate the intestinal mucosa”. For the same compound, the minimum inhibitory concentration (MIC) with Desulfovibrio (Desulfovibrio strain 4019) was 256 µg/mL (≈ 213 µM); with Desulfovibrio (Desulfovibrio strain 8236) it was 256 µg/mL (≈ 213 µM); in the series on Desulfovibrio (Desulfovibrio strain 8381) it was more than 512 µg/mL; against Desulfovibrio (Desulfovibrio strain 8907), more than 512 µg/mL; against Desulfovibrio (Desulfovibrio strain 8933), more than 512 µg/mL; in the series on Desulfovibrio (Desulfovibrio strain 8951), more than 512 µg/mL. Besides, the MIC is more than 512 µg/mL against Desulfovibrio (Desulfovibrio strain 9070); more than 512 µg/mL with Desulfovibrio (Desulfovibrio strain 9120); more than 512 µg/mL against Desulfovibrio (Desulfovibrio strain 9706); more than 512 µg/mL against Desulfovibrio (Desulfovibrio strain 9976); 128 µg/mL (≈ 106 µM) against Desulfovibrio (Desulfovibrio strain 10831); 256 µg/mL (≈ 213 µM) in the series on Desulfovibrio (Desulfovibrio strain 11081). Further, the MIC against Desulfovibrio (Desulfovibrio strain 11094) was 256 µg/mL (≈ 213 µM); in the series with Desulfovibrio (Desulfovibrio strain 11232) it was more than 512 µg/mL; in the series on Desulfovibrio (Desulfovibrio strain 11346), more than 512 µg/mL; against Desulfovibrio (Desulfovibrio strain 11378), 256 µg/mL (≈ 213 µM); in the series on Desulfovibrio (Desulfovibrio strain 11437), more than 512 µg/mL; with Desulfovibrio (Desulfovibrio strain 11568), more than 512 µg/mL. Further, the MIC with Desulfovibrio (Desulfovibrio strain 11623) is more than 512 µg/mL; with Desulfovibrio (Desulfovibrio strain 11717), 256 µg/mL (≈ 213 µM); against Desulfovibrio (Desulfovibrio strain 11789), 16 µg/mL (≈ 13.3 µM); in the series with Desulfovibrio (Desulfovibrio strain 11830), 128 µg/mL (≈ 106 µM); against Desulfovibrio (Desulfovibrio strain 11949) it was more than 512 µg/mL; against Desulfovibrio (Desulfovibrio strain 12379) it was 8 µg/mL (≈ 6.65 µM). Besides, the figures for the MIC with Desulfovibrio (Desulfovibrio strain 13966), in the series with Desulfovibrio (setting [10]) and against Desulfovibrio (setting [11]) were more than 512 µg/mL, 256 µg/mL (≈ 213 µM) and 256 µg/mL (≈ 213 µM), respectively.
Turning to Colistin, the “Absorption when given by the oral route” value in series [1] (oral) is “virtually unabsorbed”. Moreover, the “Penetration of the intestinal mucosa” value in series [1] (oral) was “do not penetrate the intestinal mucosa”. In addition, the MIC in the series with Desulfovibrio (Desulfovibrio strain 4019), in the series with Desulfovibrio (Desulfovibrio strain 8236), against Desulfovibrio (Desulfovibrio strain 8381), against Desulfovibrio (Desulfovibrio strain 8907), with Desulfovibrio (Desulfovibrio strain 8933) and with Desulfovibrio (Desulfovibrio strain 8951) was more than 512 µg/mL throughout. In addition, the MIC against Desulfovibrio (Desulfovibrio strain 9070), against Desulfovibrio (Desulfovibrio strain 9120), in the series on Desulfovibrio (Desulfovibrio strain 9706), in the series on Desulfovibrio (Desulfovibrio strain 9976), in the series with Desulfovibrio (Desulfovibrio strain 10831) and in the series with Desulfovibrio (Desulfovibrio strain 11081) was more than 512 µg/mL throughout. The MIC with Desulfovibrio (Desulfovibrio strain 11094), against Desulfovibrio (Desulfovibrio strain 11232), against Desulfovibrio (Desulfovibrio strain 11346), in the series on Desulfovibrio (Desulfovibrio strain 11378), with Desulfovibrio (Desulfovibrio strain 11437) and against Desulfovibrio (Desulfovibrio strain 11568) was more than 512 µg/mL in each case. For the same compound, the MIC against Desulfovibrio (Desulfovibrio strain 11623), against Desulfovibrio (Desulfovibrio strain 11717), in the series with Desulfovibrio (Desulfovibrio strain 11789), with Desulfovibrio (Desulfovibrio strain 11830), with Desulfovibrio (Desulfovibrio strain 11949) and against Desulfovibrio (Desulfovibrio strain 12379) was more than 512 µg/mL in each case. The MIC with Desulfovibrio (Desulfovibrio strain 13966), against Desulfovibrio (setting [10]) and against Desulfovibrio (setting [11]) was more than 512 µg/mL each time.
With Trimethoprim/sulfamethoxazole [TMX/Sul], the MIC against Desulfovibrio (Desulfovibrio strain 8381) was 256 µg/mL; in the series with Desulfovibrio (Desulfovibrio strain 8907) it was 512 µg/mL; against Desulfovibrio (Desulfovibrio strain 8933), 256 µg/mL; against Desulfovibrio (Desulfovibrio strain 8951), 256 µg/mL; with Desulfovibrio (Desulfovibrio strain 9070), more than 512 µg/mL; against Desulfovibrio (Desulfovibrio strain 9120), 256 µg/mL. Moreover, the MIC in the series on Desulfovibrio (Desulfovibrio strain 9706) was 256 µg/mL; in the series with Desulfovibrio (Desulfovibrio strain 9976), 256 µg/mL; in the series on Desulfovibrio (Desulfovibrio strain 11232), 128 µg/mL; in the series on Desulfovibrio (Desulfovibrio strain 11346), 512 µg/mL; in the series on Desulfovibrio (Desulfovibrio strain 11437) it was 4 µg/mL; against Desulfovibrio (Desulfovibrio strain 11568), more than 512 µg/mL. Also, the MIC in the series with Desulfovibrio (Desulfovibrio strain 11623) was 512 µg/mL; in the series with Desulfovibrio (Desulfovibrio strain 11949), 512 µg/mL; with Desulfovibrio (Desulfovibrio strain 13966) it was 512 µg/mL; with Desulfovibrio (setting [10]) it was more than 512 µg/mL; in the series on Desulfovibrio (setting [11]) it was 256 µg/mL.
Take ramoplanin: the Activity against clostridia result in the series with clostridia is reported as “very good activity”. In series [1] (humans), the “Systemic absorption in humans” value is recorded as “not detectably absorbed”.
